These results are taken from ChEMBL document CHEMBL5465560, “Selectivity Literature for EUbOPEN Chemogenomic Library” (2024).

Molecules are shown by their SMILES.

Assay [1] deals with Rho-associated protein kinase 2 (Homo sapiens, UniProt O75116). Briefly: Selectivity interaction (Upstate Kinase Profiler service (Millipore)) EUB0000056c ROCK2. The settings on record: at 1 µM.
For assay [2], the system named is Tyrosine-protein kinase ABL1 (Homo sapiens), P00519 [H396P]. The note with it: at 10 µM.
For assay [3], the system named is Proto-oncogene tyrosine-protein kinase receptor Ret (Homo sapiens), P07949 [V804M]. Description: (§1) Selectivity interaction (KinomeScan (DiscoverX)) EUB0001079a RET. The note with it: at 1 µM.
In assay [4] the test system is Proto-oncogene tyrosine-protein kinase receptor Ret (Homo sapiens), P07949 [M918T]. Described as §1. The settings on record: at 1 µM.
The target of assay [5] is Proto-oncogene tyrosine-protein kinase receptor Ret (Homo sapiens, UniProt P07949). Described as §1. The settings on record: at 1 µM.
Assay [6] relates to Proto-oncogene tyrosine-protein kinase receptor Ret (Homo sapiens), P07949 [V804L]. Described as §1. The note with it: at 1 µM.
In assay [7] the target is CDK3/cyclin E (Homo sapiens) (UniProt P24864+O96020+Q00526). Briefly: Selectivity interaction (Millipore kinase profiler) EUB0000124b CDK3. Type of assay: protein-complex assay. The settings on record: at 10 µM.
Assay [8] concerns the target Ribosomal protein S6 kinase alpha-6 (Homo sapiens, UniProt Q9UK32). Description: Selectivity interaction (KinomeScan (DiscoverX)) EUB0000092b RPS6KA6. The settings on record: at 10 µM.
Assay [9] has as its target NT-3 growth factor receptor (Homo sapiens, UniProt Q16288). Description: Selectivity interaction (KinomeScan (DiscoverX)) EUB0001049a NTRK3. The note with it: at 1 µM.
Assay [10] addresses T1, Tyrosine-protein kinase TXK (Homo sapiens) (UniProt P42681).
T1 sequence (whole entry): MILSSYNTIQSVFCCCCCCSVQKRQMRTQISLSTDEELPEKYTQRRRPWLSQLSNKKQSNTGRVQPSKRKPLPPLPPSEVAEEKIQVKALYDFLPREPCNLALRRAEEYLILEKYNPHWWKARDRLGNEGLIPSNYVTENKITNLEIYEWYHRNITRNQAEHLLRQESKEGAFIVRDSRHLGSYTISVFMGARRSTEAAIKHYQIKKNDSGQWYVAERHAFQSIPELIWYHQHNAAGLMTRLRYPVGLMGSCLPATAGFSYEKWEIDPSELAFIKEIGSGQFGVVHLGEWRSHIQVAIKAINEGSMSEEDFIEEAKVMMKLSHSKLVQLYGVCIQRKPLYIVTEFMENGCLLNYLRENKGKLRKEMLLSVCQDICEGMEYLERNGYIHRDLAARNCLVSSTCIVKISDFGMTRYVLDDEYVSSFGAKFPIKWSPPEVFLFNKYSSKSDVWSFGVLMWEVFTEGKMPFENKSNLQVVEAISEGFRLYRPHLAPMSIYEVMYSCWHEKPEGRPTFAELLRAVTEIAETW
Briefly: Selectivity interaction (KinomeScan (DiscoverX)) EUB0000607a TXK. The settings on record: at 10 µM.

The target in assay [11] is Leucine-rich repeat serine/threonine-protein kinase 2 (Homo sapiens, UniProt Q5S007). Description: Selectivity interaction (ActivX KiNativ screen (kinase selectivity in THP-1 cell lysates)) EUB0000639a LRRK2. It counts as subcellular. The note with it: lysate.
The target in assay [12] is T2, Interleukin-1 receptor-associated kinase 3 (Homo sapiens) (UniProt Q9Y616).
T2 sequence (whole entry): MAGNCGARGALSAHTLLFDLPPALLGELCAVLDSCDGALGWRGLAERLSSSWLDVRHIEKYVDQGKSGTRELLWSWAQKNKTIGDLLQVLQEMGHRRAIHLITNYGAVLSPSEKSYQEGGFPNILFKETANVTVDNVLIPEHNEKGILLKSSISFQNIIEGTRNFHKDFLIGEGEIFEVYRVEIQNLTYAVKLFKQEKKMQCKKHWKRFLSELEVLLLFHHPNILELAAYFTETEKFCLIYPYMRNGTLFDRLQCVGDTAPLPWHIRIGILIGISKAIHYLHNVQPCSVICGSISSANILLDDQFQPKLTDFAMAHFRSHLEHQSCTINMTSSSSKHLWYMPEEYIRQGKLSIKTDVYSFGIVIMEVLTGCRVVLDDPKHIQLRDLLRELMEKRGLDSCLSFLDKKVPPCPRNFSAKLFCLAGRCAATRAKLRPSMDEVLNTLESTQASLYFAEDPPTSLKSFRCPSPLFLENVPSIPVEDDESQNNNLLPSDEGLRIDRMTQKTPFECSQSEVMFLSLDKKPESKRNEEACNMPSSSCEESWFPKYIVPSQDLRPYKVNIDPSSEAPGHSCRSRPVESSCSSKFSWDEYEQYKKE
Description: Selectivity interaction (ActivX KiNativ screen (kinase selectivity in THP-1 cell lysates)) EUB0000639a IRAK3. Type of assay: subcellular. The settings on record: lysate, at 0.01 µM.

For assay [13], the target named is Receptor-type tyrosine-protein kinase FLT3 (Homo sapiens) (UniProt P36888). Briefly: Selectivity interaction (KinomeScan (DiscoverX)) EUB0000229b FLT3. The settings on record: at 10 µM.
Assay [14] deals with T3, Serine/threonine-protein kinase TNNI3K (Homo sapiens) (UniProt Q59H18).
T3 sequence (whole entry): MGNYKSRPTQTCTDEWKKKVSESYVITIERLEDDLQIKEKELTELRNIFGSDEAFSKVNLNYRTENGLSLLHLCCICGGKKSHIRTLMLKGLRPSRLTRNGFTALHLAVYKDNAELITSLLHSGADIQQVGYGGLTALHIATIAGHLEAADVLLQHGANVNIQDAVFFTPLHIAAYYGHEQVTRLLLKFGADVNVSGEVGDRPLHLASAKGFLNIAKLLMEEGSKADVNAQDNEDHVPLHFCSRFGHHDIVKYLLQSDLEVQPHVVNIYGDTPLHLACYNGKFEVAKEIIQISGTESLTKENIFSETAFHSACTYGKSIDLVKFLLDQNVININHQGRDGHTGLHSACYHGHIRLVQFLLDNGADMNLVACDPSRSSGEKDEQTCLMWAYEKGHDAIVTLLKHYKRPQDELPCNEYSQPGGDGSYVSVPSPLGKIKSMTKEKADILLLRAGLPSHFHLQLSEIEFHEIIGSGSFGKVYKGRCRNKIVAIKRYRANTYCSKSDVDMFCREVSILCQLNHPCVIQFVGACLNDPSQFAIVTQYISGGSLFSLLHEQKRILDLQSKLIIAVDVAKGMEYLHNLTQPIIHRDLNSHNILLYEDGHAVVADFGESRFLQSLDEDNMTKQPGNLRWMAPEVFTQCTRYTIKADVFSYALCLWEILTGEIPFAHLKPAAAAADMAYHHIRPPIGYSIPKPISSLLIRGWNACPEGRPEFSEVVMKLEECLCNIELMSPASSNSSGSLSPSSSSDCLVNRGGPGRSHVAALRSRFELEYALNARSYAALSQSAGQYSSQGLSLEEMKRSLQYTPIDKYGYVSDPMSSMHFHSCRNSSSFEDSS
Briefly: Selectivity interaction (KinomeScan (DiscoverX)) EUB0001619a TNNI3K. The settings on record: at 1 µM.

Assay [15] deals with Calcium/calmodulin-dependent protein kinase type 1G (Homo sapiens) (UniProt Q96NX5). Description: Selectivity interaction (KinomeScan (DiscoverX)) EUB0000618a CAMK1G. The settings on record: at 10 µM.
Sequence of Calcium/calmodulin-dependent protein kinase type 1G (Homo sapiens) (Q96NX5 whole entry): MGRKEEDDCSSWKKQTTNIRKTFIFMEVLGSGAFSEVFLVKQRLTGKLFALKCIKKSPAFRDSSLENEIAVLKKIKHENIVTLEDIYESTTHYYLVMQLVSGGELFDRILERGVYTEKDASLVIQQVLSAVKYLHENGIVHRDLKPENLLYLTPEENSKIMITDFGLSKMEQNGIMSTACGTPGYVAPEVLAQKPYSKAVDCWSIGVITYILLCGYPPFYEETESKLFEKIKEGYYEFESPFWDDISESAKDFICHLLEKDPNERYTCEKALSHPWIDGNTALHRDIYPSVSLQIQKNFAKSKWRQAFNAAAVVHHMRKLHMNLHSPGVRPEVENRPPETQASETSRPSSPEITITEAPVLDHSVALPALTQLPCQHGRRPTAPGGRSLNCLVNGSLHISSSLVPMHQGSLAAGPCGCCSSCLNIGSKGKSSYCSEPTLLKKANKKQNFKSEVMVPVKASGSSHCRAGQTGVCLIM

Sequence of Leucine-rich repeat serine/threonine-protein kinase 2 (Q5S007 whole entry): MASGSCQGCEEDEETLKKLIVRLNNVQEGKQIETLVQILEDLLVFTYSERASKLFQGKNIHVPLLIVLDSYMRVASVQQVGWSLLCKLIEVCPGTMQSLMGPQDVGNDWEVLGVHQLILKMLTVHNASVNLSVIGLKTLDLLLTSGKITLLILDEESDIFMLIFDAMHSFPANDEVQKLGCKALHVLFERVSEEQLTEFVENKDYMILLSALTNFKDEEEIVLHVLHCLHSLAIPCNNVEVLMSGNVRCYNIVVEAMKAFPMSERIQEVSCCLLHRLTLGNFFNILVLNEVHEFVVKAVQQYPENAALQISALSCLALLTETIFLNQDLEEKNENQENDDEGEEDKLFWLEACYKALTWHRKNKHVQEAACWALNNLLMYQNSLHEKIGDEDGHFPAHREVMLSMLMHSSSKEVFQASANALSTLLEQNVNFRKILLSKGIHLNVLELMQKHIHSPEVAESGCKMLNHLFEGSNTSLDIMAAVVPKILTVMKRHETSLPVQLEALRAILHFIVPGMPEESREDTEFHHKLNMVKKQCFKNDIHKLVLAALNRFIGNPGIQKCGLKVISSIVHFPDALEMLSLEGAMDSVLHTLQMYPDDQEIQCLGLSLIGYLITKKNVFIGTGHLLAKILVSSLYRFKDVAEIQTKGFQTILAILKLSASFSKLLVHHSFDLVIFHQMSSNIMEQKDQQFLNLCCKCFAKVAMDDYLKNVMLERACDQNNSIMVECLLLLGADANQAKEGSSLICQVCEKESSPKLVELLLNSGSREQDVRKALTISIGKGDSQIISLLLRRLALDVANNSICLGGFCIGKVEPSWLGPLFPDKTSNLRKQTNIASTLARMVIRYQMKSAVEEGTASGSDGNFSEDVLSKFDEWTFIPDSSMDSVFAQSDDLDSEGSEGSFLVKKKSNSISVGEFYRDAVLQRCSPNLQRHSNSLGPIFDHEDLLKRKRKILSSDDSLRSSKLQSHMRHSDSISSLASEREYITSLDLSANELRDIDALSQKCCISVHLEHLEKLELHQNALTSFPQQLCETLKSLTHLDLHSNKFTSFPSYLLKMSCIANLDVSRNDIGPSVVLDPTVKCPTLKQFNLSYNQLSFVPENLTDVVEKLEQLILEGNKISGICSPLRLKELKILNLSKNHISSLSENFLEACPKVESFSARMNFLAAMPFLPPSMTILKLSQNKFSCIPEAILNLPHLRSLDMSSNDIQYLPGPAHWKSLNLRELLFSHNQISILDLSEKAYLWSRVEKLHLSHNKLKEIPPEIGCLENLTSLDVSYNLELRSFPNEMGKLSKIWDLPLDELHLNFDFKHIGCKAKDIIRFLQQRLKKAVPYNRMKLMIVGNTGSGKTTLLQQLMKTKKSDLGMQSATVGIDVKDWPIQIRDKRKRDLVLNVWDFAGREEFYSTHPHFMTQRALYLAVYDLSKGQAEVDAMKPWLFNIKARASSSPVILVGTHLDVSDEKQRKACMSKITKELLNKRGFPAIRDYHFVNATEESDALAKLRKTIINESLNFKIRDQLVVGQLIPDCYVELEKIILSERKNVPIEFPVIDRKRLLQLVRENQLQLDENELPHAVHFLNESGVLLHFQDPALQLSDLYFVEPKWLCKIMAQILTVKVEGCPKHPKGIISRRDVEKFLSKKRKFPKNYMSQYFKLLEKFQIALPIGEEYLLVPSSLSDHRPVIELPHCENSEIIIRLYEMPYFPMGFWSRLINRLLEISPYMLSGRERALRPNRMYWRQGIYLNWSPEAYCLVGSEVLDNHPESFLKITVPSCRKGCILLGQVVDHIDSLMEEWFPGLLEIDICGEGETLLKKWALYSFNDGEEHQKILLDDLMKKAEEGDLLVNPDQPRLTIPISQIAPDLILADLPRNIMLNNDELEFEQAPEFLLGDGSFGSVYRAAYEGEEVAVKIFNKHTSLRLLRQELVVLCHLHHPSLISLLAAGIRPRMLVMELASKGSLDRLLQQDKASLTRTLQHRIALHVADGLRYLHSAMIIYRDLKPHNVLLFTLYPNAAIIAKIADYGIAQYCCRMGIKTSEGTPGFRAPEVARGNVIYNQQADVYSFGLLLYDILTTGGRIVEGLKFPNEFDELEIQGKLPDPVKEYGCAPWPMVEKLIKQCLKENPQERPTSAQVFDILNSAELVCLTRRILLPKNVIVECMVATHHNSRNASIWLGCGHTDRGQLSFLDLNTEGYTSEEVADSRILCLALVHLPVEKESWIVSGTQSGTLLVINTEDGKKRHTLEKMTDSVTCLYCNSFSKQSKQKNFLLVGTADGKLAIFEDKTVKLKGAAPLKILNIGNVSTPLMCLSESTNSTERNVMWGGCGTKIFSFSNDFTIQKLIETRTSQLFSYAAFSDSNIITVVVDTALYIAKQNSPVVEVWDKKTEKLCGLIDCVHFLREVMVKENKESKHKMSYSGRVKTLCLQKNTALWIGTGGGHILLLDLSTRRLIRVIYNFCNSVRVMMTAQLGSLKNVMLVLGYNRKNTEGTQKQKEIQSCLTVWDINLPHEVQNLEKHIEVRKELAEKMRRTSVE
Sequence of Rho-associated protein kinase 2 (O75116 whole entry, looked up): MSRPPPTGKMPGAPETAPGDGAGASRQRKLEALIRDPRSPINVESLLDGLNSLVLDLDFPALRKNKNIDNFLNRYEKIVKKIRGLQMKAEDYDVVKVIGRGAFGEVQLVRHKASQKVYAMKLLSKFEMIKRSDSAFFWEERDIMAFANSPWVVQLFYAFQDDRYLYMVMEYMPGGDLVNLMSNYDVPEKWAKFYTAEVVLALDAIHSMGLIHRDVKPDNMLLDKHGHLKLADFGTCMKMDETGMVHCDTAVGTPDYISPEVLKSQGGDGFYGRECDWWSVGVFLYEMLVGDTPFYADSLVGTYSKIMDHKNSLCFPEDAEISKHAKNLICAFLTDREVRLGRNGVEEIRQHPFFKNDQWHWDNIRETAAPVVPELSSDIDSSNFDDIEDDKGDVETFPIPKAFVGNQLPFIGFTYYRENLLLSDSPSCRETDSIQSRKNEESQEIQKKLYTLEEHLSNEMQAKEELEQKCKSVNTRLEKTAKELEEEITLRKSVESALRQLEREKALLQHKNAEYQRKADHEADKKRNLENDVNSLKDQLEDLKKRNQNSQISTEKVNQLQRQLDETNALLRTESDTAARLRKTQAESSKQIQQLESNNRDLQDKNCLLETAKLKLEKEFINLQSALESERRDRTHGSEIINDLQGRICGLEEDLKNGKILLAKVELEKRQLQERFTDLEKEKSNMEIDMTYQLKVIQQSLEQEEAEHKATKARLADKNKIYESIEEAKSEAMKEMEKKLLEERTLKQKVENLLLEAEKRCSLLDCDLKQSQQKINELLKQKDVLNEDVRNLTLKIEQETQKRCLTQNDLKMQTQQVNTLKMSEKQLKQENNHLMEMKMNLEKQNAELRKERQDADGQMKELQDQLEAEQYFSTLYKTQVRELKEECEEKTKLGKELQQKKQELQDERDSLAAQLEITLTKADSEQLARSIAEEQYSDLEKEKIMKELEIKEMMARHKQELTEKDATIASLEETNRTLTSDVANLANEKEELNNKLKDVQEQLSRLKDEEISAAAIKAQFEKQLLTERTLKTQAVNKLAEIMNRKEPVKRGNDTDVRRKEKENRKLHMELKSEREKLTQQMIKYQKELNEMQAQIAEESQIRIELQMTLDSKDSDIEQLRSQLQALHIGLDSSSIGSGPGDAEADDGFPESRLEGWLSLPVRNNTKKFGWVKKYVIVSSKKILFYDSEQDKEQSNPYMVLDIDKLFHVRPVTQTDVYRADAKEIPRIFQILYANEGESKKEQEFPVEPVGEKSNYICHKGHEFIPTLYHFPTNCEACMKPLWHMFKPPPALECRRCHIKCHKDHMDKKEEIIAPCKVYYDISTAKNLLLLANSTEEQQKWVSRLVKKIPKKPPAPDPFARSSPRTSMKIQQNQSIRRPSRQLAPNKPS
Sequence of Ribosomal protein S6 kinase alpha-6 (Q9UK32 whole entry): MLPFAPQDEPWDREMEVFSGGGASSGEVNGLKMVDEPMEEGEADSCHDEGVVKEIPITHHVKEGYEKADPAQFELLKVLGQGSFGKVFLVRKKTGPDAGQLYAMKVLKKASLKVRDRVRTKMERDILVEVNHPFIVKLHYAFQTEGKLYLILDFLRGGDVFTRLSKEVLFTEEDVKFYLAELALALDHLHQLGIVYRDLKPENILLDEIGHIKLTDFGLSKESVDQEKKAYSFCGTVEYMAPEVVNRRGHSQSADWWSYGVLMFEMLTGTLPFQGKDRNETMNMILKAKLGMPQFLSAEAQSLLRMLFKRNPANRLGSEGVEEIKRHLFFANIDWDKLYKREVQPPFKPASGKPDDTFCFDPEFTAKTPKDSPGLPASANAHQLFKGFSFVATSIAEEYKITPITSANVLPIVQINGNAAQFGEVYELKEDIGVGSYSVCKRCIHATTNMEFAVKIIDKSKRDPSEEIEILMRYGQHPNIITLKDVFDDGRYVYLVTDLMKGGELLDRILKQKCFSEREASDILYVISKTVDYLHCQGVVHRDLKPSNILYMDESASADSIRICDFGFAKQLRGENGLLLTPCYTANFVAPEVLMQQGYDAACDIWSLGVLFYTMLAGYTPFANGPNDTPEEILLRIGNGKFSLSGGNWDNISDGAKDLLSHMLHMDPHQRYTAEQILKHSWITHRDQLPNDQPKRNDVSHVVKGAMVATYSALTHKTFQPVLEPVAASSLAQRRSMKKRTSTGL

In the case of `Cc1ccc(-c2ccc3c(ccc4sc5c(c43)NC[C@@H](C)NC5=O)n2)cn1`, the % of inhibition in assay [1] is -9%.

In the case of `Cc1cc([C@@H](C)Nc2ccccc2C(=O)O)c2nc(N3CCOCC3)cc(=O)n2c1` [AZD-6482], the % of control in assay [2] is 61%.

Regarding `Nc1cnc(N2CCc3cc(S(=O)(=O)Nc4c(F)cc(Cl)cc4F)cc(N4CCCC4=O)c32)nc1` [TP-020n], the % of control came to 100% in [3], 100% in [4], 89% in assay [5] and 99% in [6].

Compound `CC(=O)Nc1cccc(-n2c(=O)n(C3CC3)c(=O)c3c(Nc4ccc(I)cc4F)n(C)c(=O)c(C)c32)c1` yielded a % of control in assay [7] of 101%.

For the compound `CCC(=O)N1CCN(c2ccc(-n3c(=O)ccc4cnc5ccc(-c6cnc7ccccc7c6)cc5c43)cc2C(F)(F)F)CC1`, the % of control in [8] stood at 66%.

Turning to `COc1cc(Nc2nc(C)cc(-c3cnn4nc(OC)ccc34)n2)cc(C(F)(F)F)c1`, in assay [9], the % of control came out at 84%.

Take `CNC(=O)Nc1ccc(-c2nc(N3CC4CCC(C3)O4)c3cnn(C4CCC5(CC4)OCCO5)c3n2)cc1`: the % of control in assay [10] is 94%.

On to `CC[C@@H]1[C@H](F)C(=O)N[C@@H]1COc1nccc2cc(C(N)=O)c(OC)cc12` [ZIMLOVISERTIB], for which the % of inhibition in assay [11] (at 0.01 µM) is 18.4%; in assay [11] (at 0.04 µM), 1.9%; in assay [11] (at 0.2 µM) it was 22.9%; in [11] (at 1 µM), 70.9%; in [11] (at 5 µM) it was 78%; in assay [12], -5.3%.

On to `COc1cc(N(C)c2ccnc3ccc(C(F)(F)F)cc23)cc(OC)c1OC`, for which the % binding in assay [13] stood at 85%.

Regarding `N#Cc1cccc(-c2c[nH]c3ncnc(N4CCOCC4)c23)c1`, the % of control in assay [14] was found to be 74%.

Turning to `O[C@H]1CC[C@H](Nc2ncc3nc(Nc4c(F)cc(F)cc4F)n([C@H]4CCOC4)c3n2)CC1`, the % of control in [15] came to 100%.
